The source made the active and inactive calls. No rule for the calls is given here.
Test system: CCRIS mutagenicity, Ames/micronucleus/aberration tests
Assay: CCRIS mutagenicity studies
[1] = Test System: AMES SALMONELLA TYPHIMURIUM, Strain/Indicator: TA98, Metabolic Activation: NONE, Method: STANDARD PLATE
[2] = Test System: AMES SALMONELLA TYPHIMURIUM, Strain/Indicator: TA98, Metabolic Activation: RAT, LIVER, S-9, AROCLOR 1254, Method: STANDARD PLATE

## CC(=O)[O][Hg][c]1ccccc1
Test System: AMES SALMONELLA TYPHIMURIUM, Strain/Indicator: TA98, Metabolic Activation: HAMSTER, LIVER, S-9, AROCLOR 1254 (10%), Method: PREINCUBATION
  mutagenic call: inactive; negative
Test System: AMES SALMONELLA TYPHIMURIUM, Strain/Indicator: TA98, Metabolic Activation: NONE, Method: PREINCUBATION
  mutagenic call: inactive; negative
Test System: AMES SALMONELLA TYPHIMURIUM, Strain/Indicator: TA98, Metabolic Activation: RAT, LIVER, S-9, AROCLOR 1254 (10%), Method: PREINCUBATION
  mutagenic call: inactive; negative
Test System: AMES SALMONELLA TYPHIMURIUM, Strain/Indicator: TA100, Metabolic Activation: HAMSTER, LIVER, S-9, AROCLOR 1254 (10%), Method: PREINCUBATION
  mutagenic call: inactive; negative
Test System: AMES SALMONELLA TYPHIMURIUM, Strain/Indicator: TA100, Metabolic Activation: NONE, Method: PREINCUBATION
  mutagenic call: inactive; negative
Test System: AMES SALMONELLA TYPHIMURIUM, Strain/Indicator: TA100, Metabolic Activation: RAT, LIVER, S-9, AROCLOR 1254 (10%), Method: PREINCUBATION
  mutagenic call: inactive; negative
Test System: AMES SALMONELLA TYPHIMURIUM, Strain/Indicator: TA1535, Metabolic Activation: HAMSTER, LIVER, S-9, AROCLOR 1254 (10%), Method: PREINCUBATION
  mutagenic call: inactive; negative
Test System: AMES SALMONELLA TYPHIMURIUM, Strain/Indicator: TA1535, Metabolic Activation: NONE, Method: PREINCUBATION
  mutagenic call: inactive; negative
Test System: AMES SALMONELLA TYPHIMURIUM, Strain/Indicator: TA1535, Metabolic Activation: RAT, LIVER, S-9, AROCLOR 1254 (10%), Method: PREINCUBATION
  mutagenic call: inactive; negative
Test System: AMES SALMONELLA TYPHIMURIUM, Strain/Indicator: TA1537, Metabolic Activation: HAMSTER, LIVER, S-9, AROCLOR 1254 (10%), Method: PREINCUBATION
  mutagenic call: inactive; negative
Test System: AMES SALMONELLA TYPHIMURIUM, Strain/Indicator: TA1537, Metabolic Activation: NONE, Method: PREINCUBATION
  mutagenic call: inactive; negative
Test System: AMES SALMONELLA TYPHIMURIUM, Strain/Indicator: TA1537, Metabolic Activation: RAT, LIVER, S-9, AROCLOR 1254 (10%), Method: PREINCUBATION
  mutagenic call: inactive; negative

## c1cnc2c(c1)-c1ncsc1CC2
Test System: AMES SALMONELLA TYPHIMURIUM, Strain/Indicator: TA1538, Metabolic Activation: RAT, LIVER, S-9, AROCLOR 1254, Method: STANDARD PLATE
  mutagenic call: inactive; negative

## O=[N+]([O-])c1c2ccccc2c2ccc3cccc4ccc1c2c43
Test System: AMES SALMONELLA TYPHIMURIUM, Strain/Indicator: TA98 (1,8-DNP6), Metabolic Activation: NONE, Method: STANDARD PLATE
  mutagenic call: inactive; negative
Test System: AMES SALMONELLA TYPHIMURIUM, Strain/Indicator: TA98 (NR), Metabolic Activation: NONE, Method: STANDARD PLATE
  mutagenic call: inactive; negative
[1]
  mutagenic call: inactive; negative
Test System: AMES SALMONELLA TYPHIMURIUM, Strain/Indicator: TA98, Metabolic Activation: NONE, Method: STANDARD PLATE (ANAEROBIC)
  mutagenic call: inactive; negative
Test System: AMES SALMONELLA TYPHIMURIUM, Strain/Indicator: TA98, Metabolic Activation: RAT, LIVER, HEPATOCYTES, AROCLOR 1254
  mutagenic call: inactive; negative
Test System: AMES SALMONELLA TYPHIMURIUM, Strain/Indicator: TA98, Metabolic Activation: RAT, LIVER, S-9, 3-METHYLCHOLANTHRENE, Method: STANDARD PLATE
  mutagenic call: active; positive
[2]
  mutagenic call: active; positive
Test System: AMES SALMONELLA TYPHIMURIUM, Strain/Indicator: TA98, Metabolic Activation: RAT, LIVER, S-9, BETA-NAPHTHOFLAVONE, Method: STANDARD PLATE
  mutagenic call: active; positive
Test System: AMES SALMONELLA TYPHIMURIUM, Strain/Indicator: TA98, Metabolic Activation: RAT, LIVER, S-9, PHENOBARBITAL, Method: STANDARD PLATE
  mutagenic call: inactive; negative
Test System: AMES SALMONELLA TYPHIMURIUM, Strain/Indicator: TA100, Metabolic Activation: NONE, Method: STANDARD PLATE
  mutagenic call: inactive; negative
Test System: AMES SALMONELLA TYPHIMURIUM, Strain/Indicator: TA100, Metabolic Activation: RAT, LIVER, S-9, AROCLOR 1254 (20 OR 50 µL), Method: STANDARD PLATE
  mutagenic call: active; positive
Test System: CHINESE HAMSTER OVARY, Strain/Indicator: CHO-K1-BH4 (HGPRT), Metabolic Activation: NONE
  mutagenic call: inactive; negative
Test System: CHO/HGPRT, Strain/Indicator: CHO-K1-BH4, Metabolic Activation: NONE
  mutagenic call: inactive; negative
Test System: CHO/HGPRT, Strain/Indicator: CHO-K1-BH4, Metabolic Activation: RAT, LIVER, HEPATOCYTES
  mutagenic call: inactive; negative
Test System: CHO/HGPRT, Strain/Indicator: CHO-K1-BH4, Metabolic Activation: RAT, LIVER, HEPATOCYTES, 3-METHYLCHOLANTHRENE
  mutagenic call: inactive; negative
Test System: CHO/HGPRT, Strain/Indicator: CHO-K1-BH4, Metabolic Activation: RAT, LIVER, HEPATOCYTES, AROCLOR 1254
  mutagenic call: inactive; negative
Test System: CHO/HGPRT, Strain/Indicator: CHO-K1-BH4, Metabolic Activation: RAT, LIVER, S-9
  mutagenic call: inactive; negative
Test System: CHO/HGPRT, Strain/Indicator: CHO-K1-BH4, Metabolic Activation: RAT, LIVER, S-9, 3-METHYLCHOLANTHRENE
  mutagenic call: inactive; negative
Test System: CHO/HGPRT, Strain/Indicator: CHO-K1-BH4, Metabolic Activation: RAT, LIVER, S-9, AROCLOR 1254
  mutagenic call: inactive; negative

## O=[N+]([O-])c1ccc2c3ccccc3c3c([N+](=O)[O-])ccc4ccc1c2c43
[1]
  mutagenic call: active; positive
[2]
  mutagenic call: active; positive
